Assay results as given in US12171761B2, “Vilazodone inclusion complexes, compositions and preparation thereof” (Sunshine Lake Pharma Co., Ltd., priority 2016, dated 2024).

Assay: Solubility of vilazodone under different physiological pH conditions
Type: physicochemical
Description: The inventors discovered that a main cause of the difference in vilazodone bioavailability between fasted and fed conditions is the significant difference in the solubility of vilazodone under different physiological pH conditions. Vilazodone is mainly absorbed in the small intestine where the physiological pH is about 6.8, and the solubility of vilazodone under such a pH is very low. Thus the amount and rate of vilazodone that is dissolved in the stomach will affect its absorption in the small intestine. […] However, in a 0.1 N HCl solution (simulated stomach fasted conditions), the solubility of vilazodone is poor, resulting in a significant reduction in bioavailability.

solubility of vilazodone (0.1 N HCl solution (simulated stomach fasted conditions)): poor | solubility of vilazodone (pH 3.1 buffer (simulated stomach fed conditions)): dissolves well | solubility of vilazodone (physiological pH about 6.8 (small intestine)): very low
SMILES: N#Cc1ccc2[nH]cc(CCCCN3CCN(c4ccc5oc(C(N)=O)cc5c4)CC3)c2c1 [Vilazodone, 5-(4-[4-(5-cyano-1H-indol-3-yl)butyl]-1-piperazinyl)-2-benzofuran-2-carboxamide]
